Test results taken from PubChem BioAssay (NCI).
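These data come from cells grown in 96-well plates and exposed to compound for 48 hours at five concentrations. TGI marks complete inhibition of growth.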

What was measured:
Experiment in all cases: NCI anticancer screen, dose series, 48 h
NCI-H460 lung = tested on: NCI-H460 lung
SNB-75 CNS = tested on: SNB-75 CNS
LXFL 529 NSCLC = tested on: LXFL 529 NSCLC
DMS 273 small cell lung = tested on: DMS 273 small cell lung
IGROV1 ovarian = tested on: IGROV1 ovarian
UO-31 renal = tested on: UO-31 renal
OVCAR-8 ovarian = tested on: OVCAR-8 ovarian
K-562 leukemia = tested on: K-562 leukemia
HCT-116 colon = tested on: HCT-116 colon
SF-268 CNS = tested on: SF-268 CNS
UACC-257 melanoma = tested on: UACC-257 melanoma
A498 renal = tested on: A498 renal
OVCAR-5 ovarian = tested on: OVCAR-5 ovarian
RPMI-8226 leukemia = tested on: RPMI-8226 leukemia
HCC-2998 colon = tested on: HCC-2998 colon
DLD-1 colon = tested on: DLD-1 colon
HT29 colon = tested on: HT29 colon
SW-620 colon = tested on: SW-620 colon
SK-OV-3 ovarian = tested on: SK-OV-3 ovarian
UACC-62 melanoma = tested on: UACC-62 melanoma
NCI-H23 lung = tested on: NCI-H23 lung
CAKI-1 renal = tested on: CAKI-1 renal
MALME-3M melanoma = tested on: MALME-3M melanoma
SN12C renal = tested on: SN12C renal
COLO 205 colon = tested on: COLO 205 colon
SF-295 CNS = tested on: SF-295 CNS
HOP-62 NSCLC = tested on: HOP-62 NSCLC
LOX IMVI melanoma = tested on: LOX IMVI melanoma
EKVX NSCLC = tested on: EKVX NSCLC
786-0 renal = tested on: 786-0 renal
M19-MEL melanoma = tested on: M19-MEL melanoma
SNB-78 CNS = tested on: SNB-78 CNS
SK-MEL-2 melanoma = tested on: SK-MEL-2 melanoma
XF 498 CNS = tested on: XF 498 CNS
MOLT-4 leukemia = tested on: MOLT-4 leukemia
HCT-15 colon = tested on: HCT-15 colon
TK-10 renal = tested on: TK-10 renal
OVCAR-3 ovarian = tested on: OVCAR-3 ovarian
A549 NSCLC = tested on: A549 NSCLC
KM12 colon = tested on: KM12 colon
CCRF-CEM leukemia = tested on: CCRF-CEM leukemia
DMS 114 small cell lung = tested on: DMS 114 small cell lung
U251 CNS = tested on: U251 CNS
HL-60(TB) leukemia = tested on: HL-60(TB) leukemia
SK-MEL-5 melanoma = tested on: SK-MEL-5 melanoma
M14 melanoma = tested on: M14 melanoma
RXF 393 renal = tested on: RXF 393 renal
KM20L2 colon = tested on: KM20L2 colon
ACHN renal = tested on: ACHN renal
SF-539 CNS = tested on: SF-539 CNS
SNB-19 CNS = tested on: SNB-19 CNS
OVCAR-4 ovarian = tested on: OVCAR-4 ovarian
SK-MEL-28 melanoma = tested on: SK-MEL-28 melanoma
NCI-H226 lung = tested on: NCI-H226 lung
HOP-92 NSCLC = tested on: HOP-92 NSCLC
HOP-18 NSCLC = tested on: HOP-18 NSCLC
SR leukemia = tested on: SR leukemia
NCI-H522 lung = tested on: NCI-H522 lung

`CN1CCc2c1nc(-c1ccc(Cl)cc1)c1c2N(C)CC1` showed a TGI (NCI-H460 lung) of 40.4 µM, a TGI (SNB-75 CNS) of 67.7 µM and a TGI (LXFL 529 NSCLC) of 77 µM. The TGI (DMS 273 small cell lung) was 32 µM, the TGI (IGROV1 ovarian) was over 100 µM and the TGI (UO-31 renal) was 32.5 µM. It also gave a TGI (OVCAR-8 ovarian) of over 100 µM, a TGI (K-562 leukemia) of 62.1 µM and a TGI (HCT-116 colon) of 18.9 µM. For the same compound, the TGI (SF-268 CNS) was over 100 µM, the TGI (UACC-257 melanoma) was 32.7 µM and the TGI (A498 renal) was 62.6 µM. For the same compound, the TGI (OVCAR-5 ovarian) was 73.3 µM, the TGI (RPMI-8226 leukemia) was 37.1 µM and the TGI (HCC-2998 colon) was 65 µM. It also gave a TGI (DLD-1 colon) of 82.4 µM, a TGI (HT29 colon) of 45.4 µM and a TGI (SW-620 colon) of over 100 µM. It also gave a TGI (SK-OV-3 ovarian) of 59.8 µM, a TGI (UACC-62 melanoma) of 25.7 µM and a TGI (NCI-H23 lung) of 49.9 µM. For the same compound, the TGI (CAKI-1 renal) was 29.9 µM, the TGI (MALME-3M melanoma) was over 100 µM and the TGI (SN12C renal) was 71.1 µM. For the same compound, the TGI (COLO 205 colon) was 21.1 µM, the TGI (SF-295 CNS) was 31.1 µM and the TGI (HOP-62 NSCLC) was 27.7 µM. For the same compound, the TGI (LOX IMVI melanoma) was 22.5 µM, the TGI (EKVX NSCLC) was over 100 µM and the TGI (786-0 renal) was over 100 µM. For the same compound, the TGI (M19-MEL melanoma) was over 100 µM, the TGI (SNB-78 CNS) was over 100 µM and the TGI (SK-MEL-2 melanoma) was over 100 µM. The TGI (XF 498 CNS) was 32.6 µM, the TGI (MOLT-4 leukemia) was 31.4 µM and the TGI (HCT-15 colon) was over 100 µM. The TGI (TK-10 renal) was 92.6 µM, the TGI (OVCAR-3 ovarian) was 22.8 µM and the TGI (A549 NSCLC) was over 100 µM. It also gave a TGI (KM12 colon) of 45.7 µM, a TGI (CCRF-CEM leukemia) of 55.2 µM and a TGI (DMS 114 small cell lung) of 34.3 µM. It also gave a TGI (U251 CNS) of 22.5 µM, a TGI (HL-60(TB) leukemia) of 47.4 µM and a TGI (SK-MEL-5 melanoma) of 26.6 µM. For the same compound, the TGI (M14 melanoma) was 20.4 µM, the TGI (RXF 393 renal) was 43.9 µM and the TGI (KM20L2 colon) was 72.3 µM. The TGI (ACHN renal) was 55.6 µM, the TGI (SF-539 CNS) was 32.9 µM and the TGI (SNB-19 CNS) was over 100 µM. For the same compound, the TGI (OVCAR-4 ovarian) was over 100 µM.

`COc1ccc(/C(Cl)=C/c2cc(OC)ccc2OC)cc1` was tested, and the TGI (SNB-75 CNS) was over 100 µM, the TGI (LXFL 529 NSCLC) was over 100 µM and the TGI (DMS 273 small cell lung) was over 100 µM. It also gave a TGI (SK-MEL-28 melanoma) of over 100 µM, a TGI (IGROV1 ovarian) of over 100 µM and a TGI (UO-31 renal) of over 100 µM. It also gave a TGI (OVCAR-8 ovarian) of over 100 µM, a TGI (K-562 leukemia) of over 100 µM and a TGI (HCT-116 colon) of over 100 µM. It also gave a TGI (SF-268 CNS) of over 100 µM, a TGI (UACC-257 melanoma) of over 100 µM and a TGI (A498 renal) of over 100 µM. The TGI (RPMI-8226 leukemia) was over 100 µM, the TGI (HCC-2998 colon) was over 100 µM and the TGI (DLD-1 colon) was over 100 µM. It also gave a TGI (HT29 colon) of over 100 µM, a TGI (SW-620 colon) of over 100 µM and a TGI (SK-OV-3 ovarian) of over 100 µM. The TGI (UACC-62 melanoma) was over 100 µM, the TGI (NCI-H23 lung) was over 100 µM and the TGI (NCI-H226 lung) was over 100 µM. The TGI (MALME-3M melanoma) was over 100 µM, the TGI (SN12C renal) was over 100 µM and the TGI (COLO 205 colon) was over 100 µM. It also gave a TGI (SF-295 CNS) of over 100 µM, a TGI (HOP-92 NSCLC) of over 100 µM and a TGI (HOP-62 NSCLC) of over 100 µM. For the same compound, the TGI (EKVX NSCLC) was over 100 µM, the TGI (786-0 renal) was over 100 µM and the TGI (M19-MEL melanoma) was over 100 µM. For the same compound, the TGI (SNB-78 CNS) was over 100 µM, the TGI (XF 498 CNS) was over 100 µM and the TGI (MOLT-4 leukemia) was over 100 µM. The TGI (HCT-15 colon) was over 100 µM, the TGI (A549 NSCLC) was over 100 µM and the TGI (HOP-18 NSCLC) was over 100 µM. The TGI (CCRF-CEM leukemia) was over 100 µM, the TGI (DMS 114 small cell lung) was over 100 µM and the TGI (U251 CNS) was over 100 µM. It also gave a TGI (HL-60(TB) leukemia) of 81.8 µM, a TGI (SK-MEL-5 melanoma) of over 100 µM and a TGI (M14 melanoma) of over 100 µM. For the same compound, the TGI (RXF 393 renal) was 69.6 µM, the TGI (KM20L2 colon) was over 100 µM and the TGI (ACHN renal) was over 100 µM. The TGI (SR leukemia) was over 100 µM, the TGI (SF-539 CNS) was over 100 µM and the TGI (SNB-19 CNS) was over 100 µM. The TGI (OVCAR-4 ovarian) was over 100 µM and the TGI (NCI-H522 lung) was over 100 µM.
